Reference: patent publication US12077503B2, “Substituted cyclic amides and their use as herbicides” (FMC CORPORATION, priority 2015, dated 2024)

What was measured:
Assay type in all cases: in vivo
[1] = tested on: pigweed (Amaranthus retroflexus); test: Test A preemergence; settings: Amaranthus retroflexus, pre-emergence, 240 h, 0 to 100 scale where 0 is no effect and 100 is complete control, read-out: Pigweed plant response rating
[2] = tested on: barnyardgrass (Echinochloa crus-galli); test: Test A preemergence; settings: Echinochloa crus-galli, pre-emergence, 240 h, 0 to 100 scale where 0 is no effect and 100 is complete control, read-out: Barnyardgrass plant response rating
Method in brief: (§1)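 In a loam soil and sand blend, planted seeds got a preemergence directed soil spray, and young plants at the one- to two-leaf stage, 2–10 cm high, got a postemergence application; ~10 d greenhouse hold; injury rated visually, 0 = none, 100 = complete control.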

[3] = tested on: ragweed (common ragweed, Ambrosia elatior); test: Test A preemergence; settings: Ambrosia artemisiifolia, pre-emergence, 240 h, 0 to 100 scale where 0 is no effect and 100 is complete control, read-out: Ragweed plant response rating
Method in brief: as §1

[4] = tested on: ryegrass, Italian (Italian ryegrass, Lolium multiflorum); test: Test A preemergence; settings: Lolium multiflorum, pre-emergence, 240 h, 0 to 100 scale where 0 is no effect and 100 is complete control, read-out: Ryegrass, Italian plant response rating
Method in brief: as §1

Kochia (Kochia scoparia) [5] = test: Test A preemergence; settings: Bassia scoparia, pre-emergence, 240 h, 0 to 100 scale where 0 is no effect and 100 is complete control, read-out: Kochia plant response rating
Method in brief: as §1

[6] = tested on: giant foxtail (Setaria faberii); test: Test A preemergence; settings: Setaria faberi, pre-emergence, 240 h, 0 to 100 scale where 0 is no effect and 100 is complete control, read-out: Foxtail, Giant plant response rating
Method in brief: as §1

rice (Oryra sativa) = test: Test B flooded paddy test; settings: Oryza sativa, 250 g ai/ha, Flood; 0 to 100 scale where 0 is no effect and 100 is complete control; read-out: Rice plant response rating
Method in brief: (§2)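 Plants at 2-leaf stage flooded to 3 cm above soil, with compounds applied directly to paddy water and that depth maintained. Plants kept in greenhouse 13–15 d. Visual rating versus controls on a 0 (no effect) to 100 (complete control) scale.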

[7] = tested on: barnyardgrass (Echinochloa crus-galli); test: Test B flooded paddy test; settings: Echinochloa crus-galli, 250 g ai/ha, Flood; 0 to 100 scale where 0 is no effect and 100 is complete control; read-out: Barnyardgrass plant response rating
Method in brief: as §2

[8] = tested on: sedge, umbrella (small-flower umbrella sedge, Cyperus difformis); test: Test B flooded paddy test; settings: Cyperus difformis, 250 g ai/ha, Flood; 0 to 100 scale where 0 is no effect and 100 is complete control; read-out: Sedge, Umbrella plant response rating
Method in brief: as §2

[9] = tested on: ducksalad (Heteranthera limosa); test: Test B flooded paddy test; settings: Heteranthera limosa, 250 g ai/ha, Flood; 0 to 100 scale where 0 is no effect and 100 is complete control; read-out: Ducksalad plant response rating
Method in brief: as §2

[10] = tested on: pigweed (Amaranthus retroflexus); test: Test A postemergence; settings: Amaranthus retroflexus, post-emergence, 240 h, Postemergence, read-out: Pigweed plant response rating (0 to 100 scale)
Method in brief: as §1

[11] = tested on: wheat (Triticum aestivum); test: Test A postemergence; settings: Triticum aestivum, post-emergence, 240 h, Postemergence, read-out: Wheat plant response rating (0 to 100 scale)
Method in brief: as §1

[12] = tested on: barnyardgrass (Echinochloa crus-galli); test: Test A postemergence; settings: Echinochloa crus-galli, post-emergence, 240 h, Postemergence
Method in brief: as §1

[13] = tested on: ragweed (common ragweed, Ambrosia elatior); test: Test A postemergence; settings: Ambrosia artemisiifolia, post-emergence, 240 h, Postemergence, read-out: Ragweed plant response rating (0 to 100 scale)
Method in brief: as §1

[14] = tested on: Galium (catchweed bedstraw, Galium aparine); test: Test A postemergence; settings: Galium, post-emergence, 240 h, Postemergence, read-out: Galium plant response rating (0 to 100 scale)
Method in brief: as §1

[15] = tested on: blackgrass (Alopecurus myosuroides); test: Test A postemergence; settings: Alopecurus myosuroides, post-emergence, 240 h, Postemergence, read-out: Blackgrass plant response rating (0 to 100 scale)
Method in brief: as §1

[16] = tested on: ryegrass, Italian (Italian ryegrass, Lolium multiflorum); test: Test A postemergence; settings: Lolium multiflorum, post-emergence, 240 h, Postemergence, read-out: Ryegrass, Italian plant response rating (0 to 100 scale)
Method in brief: as §1

corn (Zea mays) = test: Test A postemergence; settings: Zea mays, post-emergence, 240 h, Postemergence, read-out: Corn plant response rating (0 to 100 scale)
Method in brief: as §1

Kochia (Kochia scoparia) [17] = test: Test A postemergence; settings: Bassia scoparia, post-emergence, 240 h, Postemergence, read-out: Kochia plant response rating (0 to 100 scale)
Method in brief: as §1

[18] = tested on: giant foxtail (Setaria faberii); test: Test A postemergence; settings: Setaria faberi, post-emergence, 240 h, Postemergence, read-out: Foxtail, Giant plant response rating (0 to 100 scale)
Method in brief: as §1

[19] = 125 g ai/ha, preemergence, visual injury rating, approximately 10 d
[20] = 125 g ai/ha, visual rating about 10 d after treatment
[21] = 31 g ai/ha, 0 is no effect, 100 is complete control

CN1C[C@H](c2ccc(C(F)(F)F)cc2)[C@@H](C(=O)Nc2ccccc2-n2cncn2)C1=O [Compound 1288]
0%: pest or weed control at 31 g/ha ([1]; 31 g ai/ha, Preemergence) | pest or weed control at 125 g/ha [1, 19] | pest or weed control at 31 g/ha ([2]; 31 g ai/ha, Preemergence) | pest or weed control at 125 g/ha [2, 19] | pest or weed control at 31 g/ha ([3]; 31 g ai/ha, Preemergence) | pest or weed control at 125 g/ha [3, 19] | pest or weed control at 31 g/ha ([4]; 31 g ai/ha, Preemergence) | pest or weed control at 125 g/ha [4, 19] | pest or weed control at 31 g/ha (Kochia (Kochia scoparia) [5]; 31 g ai/ha, Preemergence) | pest or weed control at 125 g/ha (Kochia (Kochia scoparia) [5]; [19]) | pest or weed control at 31 g/ha ([6]; 31 g ai/ha, Preemergence) | pest or weed control at 125 g/ha [6, 19] | pest or weed control at 250 g/ha (rice (Oryra sativa)) | pest or weed control at 250 g/ha [7] | pest or weed control at 250 g/ha [8] | pest or weed control at 250 g/ha [9] | pest or weed control at 125 g/ha [10, 20] | pest or weed control at 31 g/ha [10, 21] | plant injury at 125 g/ha [11, 20] | plant injury at 31 g/ha [11, 21] | pest or weed control at 125 g/ha ([12]; 125 g ai/ha, visual rating about 10 d after treatment, read-out: Barnyardgrass plant response rating (0 to 100 scale, 0 no effect, 100 complete control)) | pest or weed control at 31 g/ha ([12]; 31 g ai/ha, 0 is no effect, 100 is complete control, read-out: Barnyardgrass plant response rating (0 to 100 scale)) | pest or weed control at 125 g/ha [13, 20] | pest or weed control at 31 g/ha [13, 21] | pest or weed control at 125 g/ha [14, 20] | pest or weed control at 31 g/ha [14, 21] | pest or weed control at 125 g/ha [15, 20] | pest or weed control at 31 g/ha [15, 21] | pest or weed control at 125 g/ha [16, 20] | pest or weed control at 31 g/ha [16, 21] | plant injury at 125 g/ha (corn (Zea mays); [20]) | plant injury at 31 g/ha (corn (Zea mays); [21]) | pest or weed control at 125 g/ha (Kochia (Kochia scoparia) [17]; [20]) | pest or weed control at 31 g/ha (Kochia (Kochia scoparia) [17]; [21]) | pest or weed control at 125 g/ha [18, 20] | pest or weed control at 31 g/ha [18, 21]
